Data on six molecules can be found in patent US12156922B2, “Copper-containing complex and uses thereof” (Bar-Ilan University, priority 2017, dated 2024).

The target in test [1] is T1, Ctr1 (Homo sapiens, UniProt O15431, DEL121-121).
T1 construct: intein (cleaved yes); made in house; host or cells: Escherichia coli BL21 (DE3)
T1 sequence (O15431 with tags, fused parts or gaps DEL121-121): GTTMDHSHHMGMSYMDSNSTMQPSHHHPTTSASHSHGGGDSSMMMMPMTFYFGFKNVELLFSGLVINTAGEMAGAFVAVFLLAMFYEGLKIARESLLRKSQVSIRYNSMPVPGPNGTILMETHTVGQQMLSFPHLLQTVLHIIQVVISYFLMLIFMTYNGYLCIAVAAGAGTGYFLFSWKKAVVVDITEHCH
Description: EPR of Cu(II) coordination after exposure of complex to purified Ctr1. The test is classed as binding. Particulars: 120 K, 0.5 mM. From the text: Human Ctr1 (hCtr1) was obtained by expression and purification of a protein (SEQ ID NO: 43), using a pYTB12-hCTR1 plasmid, in which the full length hCTR1 sequence was cloned into the pYTB12 plasmid. This construct encodes for a fusion protein composed of hCTR1, intein, and a chitin-binding domain. The plasmid was transformed into the Escherichia coli strain BL21 (DE3).
In order to assess the behavior of a Cu(II)-ligand-peptide complex under physiological conditions, the coordination of Cu(II) was investigated by EPR spectroscopy following exposure of a Cu(II)-IDA-Met1 complex (prepared as described in Example 2) to the copper transporter Ctr1 (in a purified state), which plays a central role in the cellular copper cycle. For comparison, the behavior of Cu(II)-IDA (without a peptide) was also investigated under such conditions. EPR spectra were interpreted by comparison to simulated spectra prepared using the EasySpin™ computational package.

Test [2] in a line: EPR of ATSM-Cu(II) complex after addition of ligands. Format: physicochemical. Particulars: 0.1 mM ATSM-Cu(II), 4 molar equivalents of ligand; 30% DMSO, 0.1 M phosphate buffer (pH 7.4). The protocol:
(§1) The stability of the ATSM-Cu(II) complex was tested by using UV-visible spectrophotometry. […] In order to confirm the dissociation of ATSM-Cu(II) complex or the formation of copper complex with ligands or copper chelation by ligands, the effect of ligands on ATSM-Cu(II) was also tested using electron paramagnetic resonance (EPR) spectroscopy.
The stability of ASTM-Cu(II) complex was further studied by EPR spectroscopy. 0.1 mM of ATSM-Cu(II) complex was prepared in 30% DMSO and 0.1 M phosphate buffer (pH 7.4).

Test [3] can be described thus: UV-visible titration of ATSM-Cu(II) complex with Cu(II) chelators and peptides (311 nm / 465 nm). The test is classed as physicochemical. Particulars: 30% DMSO in 0.1 M phosphate buffer (pH 7.4). The protocol: as §1
Stock solutions of CuCl2 (10 mM), 1,10-phenanthroline (10 mM), IDA (10 mM), and L-histidine (10 mM), NTA (5 mM) and Pep1 (5 mM) were prepared in ultrapure water (Milli-Q®). Stock solutions (1 mM) of HAGAH, HGGH and HTGMK peptides were prepared by dissolution in 0.1 M phosphate buffer (pH 7.4).
In order to facilitate the solubility of ATSM-Cu(II) complex, all the measurements were carried out in 30% DMSO in 0.1 M phosphate buffer (pH 7.4), at physiological conditions.

Test [4] concerns DA3 breast cancer cells. In words: Cu(I) levels in cells by bicinchoninic acid (BCA) absorption at 562 nm. The test is classed as cell-based. As for the experimental part:
The interaction between cells and Cu(II)-ligand-peptide complexes under various conditions was investigated by contacting DA3 breast cancer cells with a Cu(II)-IDA-Cys1 complex (prepared as described in Example 2) or with CuCl2 as a control. The concentration of reduced copper (Cu(I)) was then determined by complexation with bicinchoninic acid (BCA) and evaluating the concentration of BCA-Cu(I) by measuring absorption at a wavelength of 562 nm.

A short description of test [5]: UV-visible spectrophotometry of Tyr-peptide binding to Cu(II), absorption at 276 nm. As for the experimental part:
In order to compare affinity of peptides to Cu(II)-ligand-peptide complexes, UV-visible spectrophotometry was used to assess the degree of incorporation of Cys1-Tyr (SEQ ID NO: 51) and Met1-Tyr (SEQ ID NO: 50) peptides into Cu(II)-containing complexes, at various concentrations of Cu(II), IDA and peptide. The spectrophotometry focused on changes in Tyr residue absorption at about 276 nm. […]
In addition, 1 mM of peptide (16.6 μl) with 1 mM CuCl2 (12.5 μl) in ultrapure water (258.4 μl) was titrated with various concentrations (ranging from 0.25 to 1 mM or 0.25 to 1.25 mM) of IDA.

Consider `O=C([O-])CNCC(=O)[O-].[Cu+2]` [Cu(II)-IDA], for which the “coordination of Cu(II) in the presence of Ctr1” value in test [1] was “becomes coordinated to the Ctr1”.
Regarding `N[C@@H](Cc1c[nH]cn1)C(=O)O` [L-His, L-histidine], the “effect on electron paramagnetic spectrum of ATSM-Cu(II) complex” value in test [2] is given as “induced significant changes”. Moreover, the “molar equivalents sufficient/needed to remove copper from the ATSM-Cu(II) complex” value in test [3] is reported as “at least four molar equivalents”.
Turning to `O=C(O)CN(CC(=O)O)CC(=O)O` [NTA, nitrilotriacetic acid], in test [2], the “effect on electron paramagnetic spectrum of ATSM-Cu(II) complex” value was “induced significant changes”. The “molar equivalents sufficient/needed to remove copper from the ATSM-Cu(II) complex” value in test [3] is “at least four molar equivalents”.
For `[Cl][Cu][Cl]` [free Cu(II) ions, CuCl2], the “time for which Cu(I) concentration in cells is maintained” value in test [4] (1.5 mM) was “depleted from the cell within several hours”. For the same molecule, the “Cu(I) ions in cells, hypoxic vs normoxic conditions” value in test [4] (1.5 mM, 2, 6 or 24 hours after exposure) is “more Cu(I) ions are observed in cells under hypoxic conditions than under normoxic conditions”. Also, the “entry of copper into cells in the presence of Ag(I) ions, a Ctr1 inhibitor” value in test [4] (3 mM Ag(I) ions, 1.5 mM copper species) was “not blocked”.
Regarding KSMAACAM (Cys1 peptide sequence), in test [5] (from Cys1-Tyr and Met1-Tyr titrations), the “affinity to Cu(II), comparison of peptides” value was “considerably stronger affinity to Cu(II) than does Met1”.
Turning to MYGMKGMSY [Met1-Tyr], in test [5] (1 mM peptide, 1 mM CuCl2, titrated with IDA), the “IDA-dependent change in absorption at 276 nm” value is recorded as “larger IDA-dependent change in absorption than did Cys1-Tyr”.
